{"source": "patent US6057371A", "about": "“Sigma receptor ligands and the use thereof” (Virginia Commonwealth University, priority 1992, dated 2000)", "key": {"PCP receptor": {"molecular_target": "PCP receptor", "experiment": "PCP receptor binding, ^3 H-MK-801", "set-up": "species or system rat", "details": "Table 4", "method": "PCP receptor binding assays against ^3 H-MK-801 were conducted as described by Keana et al., Proc. Natl. Acad. Sci (USA) 86: 5631-5635 (1989); Keana et al., Life Sciences 43: 965-973 (1988). For (+) ^3 H-MK-801 binding, 1 nM of radioligand was incubated with about 100 ug of thawed rat brain membrane protein for 4 hr at room temperature. The assays were carried out in 5 mM Tris/acetate and were stopped by rapid filtration through Whatman GF/B or Schleicher & Schuell no. 32 glass fiber filters (presoaked in 0.05% polyethylenamine)."}, "Dopamine D2 receptor": {"molecular_target": "T1, Dopamine D2 receptor (Rattus norvegicus, UniProt P61169)", "T1 construct": "Rat striatal membranes were prepared from frozen tissue; from tissue; host or cells: rat striatum, frozen tissue", "T1 sequence (P61169 whole entry)": "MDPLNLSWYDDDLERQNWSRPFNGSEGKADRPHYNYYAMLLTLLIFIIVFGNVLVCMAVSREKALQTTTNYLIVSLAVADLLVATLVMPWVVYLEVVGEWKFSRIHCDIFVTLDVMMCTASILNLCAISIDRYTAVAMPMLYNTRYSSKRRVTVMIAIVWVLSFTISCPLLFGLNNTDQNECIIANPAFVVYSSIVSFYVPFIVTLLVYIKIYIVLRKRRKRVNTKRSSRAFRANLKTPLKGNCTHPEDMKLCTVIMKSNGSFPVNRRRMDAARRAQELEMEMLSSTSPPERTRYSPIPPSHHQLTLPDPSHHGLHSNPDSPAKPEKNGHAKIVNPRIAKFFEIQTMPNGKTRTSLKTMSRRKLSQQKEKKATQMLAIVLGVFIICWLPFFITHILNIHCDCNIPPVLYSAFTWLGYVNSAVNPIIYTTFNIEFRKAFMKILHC", "experiment": "Dopamine D2 receptor binding, [^3 H]domperidone, striatal membranes", "details": "Table 4", "method": "(§1) Dopamine D1 and D2 receptor binding assays were performed as described by Billard et al., Life Sci. 35: 1885-1893 (1984) using [^3 H]SCH-23390 for the D1 receptors and [^3 H]domperidone for the D2 receptors (Baudry et al., Arch. Pharmacol. 308: 231-237 (1979).\n(§2) Rat striatal membranes were prepared from frozen tissue by Poltron homogenization in 25 volumes of ice cold Tris-EDTA buffer (50 mM Tris-HCl, 1 mM EDTA, pH 7.4 at 4° C.). The homogenate was centrifuged at 48,000× g for 10 min. at 4° C., and the pellet was resuspended in 25 volumes of the same buffer. This suspension was then incubated at 37° C. for 15 min., followed by recentrifugation as before. The resulting pellet was resuspended in 267 volumes of assay buffer (50 mM Tris-HCl, 120 mM NaCl, 5 mM KCl, 2 mM CaCl2, 1 mM MgCl2, pH 7.4 at 37° C.).\n(§3) The binding assays were conducted with 100 uL of [^3 H]SCH-23390 or [^3 H]domperidone (to give about 1 nM final), 100 uL of buffer or drug solution, and 800 uL of membrane suspension (to give about 250 ug of striatal membrane protein per assay). The tubes were incubated at 37° C. for 60 min. The assays were stopped by rapid filtration over Schleicher & Schuell #32 or Whatman GF/B glass fiber filters (presoaked in 0.5% polyethyleneimine for [^3 H]domperidone binding), followed by two 3 mL washes of ice cold buffer using a Brandel cell harvester. After vigorous shaking, the filter disks were counted at 52% efficiency in 5 mL of Cytoscint (ICN)."}, "sigma receptor": {"molecular_target": "sigma receptor", "experiment": "Sigma receptor binding, [^3 H]DTG, brain membranes (both sigma-1 and sigma-2 sites)", "set-up": "species or system guinea pig", "details": "Table 7; Phenyl-(CH2)x -NH--(CH2)y -Phenyl; read-out: Ki"}, "5-HT1A receptor": {"molecular_target": "T2, 5-HT1A receptor (Rattus norvegicus, UniProt P19327)", "T2 sequence (P19327 1-422)": "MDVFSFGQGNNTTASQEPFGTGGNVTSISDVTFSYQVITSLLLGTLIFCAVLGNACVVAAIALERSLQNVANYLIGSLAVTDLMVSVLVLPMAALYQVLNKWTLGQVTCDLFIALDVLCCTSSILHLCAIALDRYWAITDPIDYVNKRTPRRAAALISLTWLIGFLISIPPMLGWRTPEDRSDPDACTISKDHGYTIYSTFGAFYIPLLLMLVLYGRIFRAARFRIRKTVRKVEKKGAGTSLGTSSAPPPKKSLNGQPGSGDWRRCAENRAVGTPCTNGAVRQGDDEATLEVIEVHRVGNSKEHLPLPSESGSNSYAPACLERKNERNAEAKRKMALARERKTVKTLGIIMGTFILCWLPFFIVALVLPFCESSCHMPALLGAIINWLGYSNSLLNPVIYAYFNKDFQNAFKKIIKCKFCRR", "experiment": "biochemical", "assay_type": "binding", "set-up": "47: 529-540 (1986); from tissue; host or cells: brain tissue, inferred from the cited method (rat frontal cortex)", "details": "Table 5", "method": "Further sigma receptor binding assays against [^3 H]DTG and 5HT-1A binding assays were conducted according to the procedure outlined in the previous examples."}, "sigma-2 binding site": {"molecular_target": "T3, sigma-2 binding site (Cavia porcellus, UniProt H0V073)", "T3 construct": "Guinea pig whole membrane preparations (P2 microsomal fraction); from tissue; host or cells: guinea pig membranes (P2 microsomal fraction), as described by Weber et al; brain inferred from the sister test b489", "T3 sequence (H0V073 1-176)": "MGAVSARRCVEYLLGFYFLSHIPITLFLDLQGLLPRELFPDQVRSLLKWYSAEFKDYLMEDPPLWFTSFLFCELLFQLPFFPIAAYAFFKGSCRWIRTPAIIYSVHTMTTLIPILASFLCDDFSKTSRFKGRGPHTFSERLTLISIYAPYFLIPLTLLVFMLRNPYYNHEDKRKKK", "experiment": "biochemical", "set-up": "species or system guinea pig", "description": "For the standard equilibrium assay, the mixtures were incubated for 30 min. at room temperature, then filtered and the radioactivity determined as described above."}, "Dopamine D1 receptor": {"molecular_target": "T4, Dopamine D1 receptor (Rattus norvegicus, UniProt P18901)", "T4 construct": "Rat striatal membranes were prepared from frozen tissue; from tissue; host or cells: rat striatum, frozen tissue", "T4 sequence (P18901 whole entry)": "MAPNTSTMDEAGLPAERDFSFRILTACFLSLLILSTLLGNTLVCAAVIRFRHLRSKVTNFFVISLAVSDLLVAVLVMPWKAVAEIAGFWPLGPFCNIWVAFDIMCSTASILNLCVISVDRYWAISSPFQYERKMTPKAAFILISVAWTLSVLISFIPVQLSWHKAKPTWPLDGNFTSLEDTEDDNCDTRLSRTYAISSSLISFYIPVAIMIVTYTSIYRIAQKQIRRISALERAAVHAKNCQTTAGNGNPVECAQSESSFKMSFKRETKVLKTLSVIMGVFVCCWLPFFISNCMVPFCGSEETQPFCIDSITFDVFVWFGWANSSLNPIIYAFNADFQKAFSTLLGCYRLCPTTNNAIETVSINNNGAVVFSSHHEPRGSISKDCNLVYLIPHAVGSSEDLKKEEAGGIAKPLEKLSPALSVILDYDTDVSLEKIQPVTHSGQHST", "experiment": "Dopamine D1 receptor binding, [^3 H]SCH-23390, striatal membranes", "details": "Table 4", "method": "as §1, §2, §3"}, "sigma-1 binding site": {"molecular_target": "T5, sigma-1 binding site (Cavia porcellus, UniProt Q60492)", "T5 construct": "Guinea pig whole membrane preparations (P2 microsomal fraction); from tissue; host or cells: guinea pig membranes (P2 microsomal fraction), as described by Weber et al; brain inferred from the sister test b489", "T5 sequence (Q60492 whole entry)": "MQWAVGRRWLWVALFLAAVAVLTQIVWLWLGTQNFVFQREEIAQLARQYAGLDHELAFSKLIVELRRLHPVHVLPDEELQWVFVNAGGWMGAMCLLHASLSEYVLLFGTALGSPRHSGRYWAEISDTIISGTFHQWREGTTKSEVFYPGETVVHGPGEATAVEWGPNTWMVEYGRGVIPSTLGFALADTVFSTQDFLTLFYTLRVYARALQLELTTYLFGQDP", "experiment": "biochemical", "set-up": "species or system guinea pig", "details": "Table 10", "method": "[^3 H]DTG was purchased from DuPont/NEN.\nThe radioactivity on the filters was determined by scintillation spectrometry at an efficiency of about 50% using Cytoscint (ICN) scintillation fluid."}, "[1]": {"details": "cited, Glennon 1984; cited from earlier work"}, "sigma sites": {"tested_on": "sigma sites", "details": "cited, cited from earlier work; for affinity for sigma-1 site compared to sigma-2 site: Hellewell and Bowen"}}, "note": "Read-outs that look alike come from different tables or passages of the source.", "data": [{"smiles": "c1ccc(CCCNCCCc2ccccc2)cc1", "note": "[Compound 15, Di-(3-phenylpropyl)-amine]", "values": [{"measurement": "IC50", "setting": "PCP receptor", "value": "> 10000", "unit": "nM"}, {"measurement": "IC50", "setting": "Dopamine D2 receptor", "value": "1680 ± 3600", "unit": "nM"}, {"measurement": "Ki", "setting": "sigma receptor", "value": 14, "unit": "nM"}, {"measurement": "Ratio 5-HT1A /σ", "setting": "5-HT1A receptor", "value": 2}, {"measurement": "IC50", "setting": "5-HT1A receptor; read-out: 5-HT1A IC50", "value": 30.7, "unit": "nM"}, {"measurement": "Ki", "setting": "sigma-2 binding site; Table 10, read-out: SIGMA-2 KI vs. 3H-DTG + PENTAZOCINE MEAN", "value": 63.9, "unit": "nM"}, {"measurement": "IC50", "setting": "Dopamine D1 receptor", "value": "> 10000", "unit": "nM"}, {"measurement": "Ki", "setting": "sigma-1 binding site; read-out: SIGMA-1 KI vs. 3H-PENTAZOCINE MEAN", "value": 11.4, "unit": "nM"}, {"measurement": "S1/S2 Ratio", "setting": "sigma-1 binding site; sigma-1/sigma-2", "value": ".178"}]}, {"smiles": "NC1CCc2ccccc2C1", "note": "(centres unmarked) [2-aminotetralin]", "values": [{"measurement": "effectiveness vs. racemic amphetamine", "setting": "[1]", "value": "about one-half as effective as racemic amphetamine"}]}, {"smiles": "C=CCN1CC[C@]2(C)c3cc(O)ccc3C[C@H]1[C@H]2C", "note": "[(+)SKF 10047, reference compound]", "values": [{"measurement": "affinity for sigma-1 site compared to sigma-2 site", "setting": "sigma sites", "value": "nearly two orders of magnitude higher affinity for the sigma-1 site compared to the sigma-2 site"}, {"measurement": "Ki", "setting": "sigma-2 binding site; SIGMA-2 KI vs. 3H-DTG + PENTAZOCINE MEAN", "value": 16200, "unit": "nM"}]}, {"smiles": "CC(C)=CCN1CCC2(C)c3cc(O)ccc3CC1C2C", "note": "(single isomer, unassigned; (+)) [(+)Pentazocine]", "values": [{"measurement": "affinity for sigma-1 site compared to sigma-2 site", "setting": "sigma sites", "value": "nearly two orders of magnitude higher affinity for the sigma-1 site compared to the sigma-2 site"}]}, {"smiles": "O=C(CCCN1CCC(O)(c2ccc(Cl)cc2)CC1)c1ccc(F)cc1", "note": "[Haloperidol]", "values": [{"measurement": "affinity for sigma sites vs. N-allyl normetrazocine (NANM)", "setting": "sigma sites; Tam 1984", "value": "approximately 100 fold"}]}]}
